Measured values published in ChEMBL document CHEMBL1201862, “PubChem BioAssay data set” (2004).
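Interpolation was linear, between the two tested concentrations surrounding the appropriate level; five concentrations were tested over 48 hours in 96-well plates. The concentration for 50% growth inhibition is given as GI50.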 The source made the active and inactive calls. Rule as the data show it: active = GI50 up to about 1.1 µM and inactive = higher.

Assays:
Test in all cases: growth of human tumour cells (NCI), 48 h
[1] = tested on: MCF7
[2] = tested on: CAKI-1
[3] = tested on: COLO 205
[4] = tested on: UO-31
[5] = tested on: HCT-15
[6] = tested on: A549
[7] = tested on: RPMI-8226
[8] = tested on: HOP-92
[9] = tested on: SN12C
[10] = tested on: MOLT-4
[11] = tested on: SF-539
[12] = tested on: HL-60
[13] = tested on: BT-549
[14] = tested on: DU-145
[15] = tested on: ACHN
[16] = tested on: SF-295
[17] = tested on: EKVX
[18] = tested on: HOP-62
[19] = tested on: OVCAR-8
[20] = tested on: NCI-H522
[21] = tested on: HT-29
[22] = tested on: SNB-19
[23] = tested on: IGROV-1
[24] = tested on: Malme-3M
[25] = tested on: NCI/ADR-RES
[26] = tested on: Hs-578T
[27] = tested on: HCC 2998
[28] = tested on: OVCAR-4
[29] = tested on: MDA-MB-231
[30] = tested on: CCRF-CEM
[31] = tested on: MDA-MB-435
[32] = tested on: SF-268
[33] = tested on: RXF 393
[34] = tested on: NCI-H226
[35] = tested on: MDA-N
[36] = tested on: HCT-116
[37] = tested on: T47D
[38] = tested on: LOX IMVI
[39] = tested on: PC-3
[40] = tested on: TK-10
[41] = tested on: NCI-H460
[42] = tested on: SK-MEL-5
[43] = tested on: SK-MEL-28
[44] = tested on: 786-0
[45] = tested on: UACC-62
[46] = tested on: KM12
[47] = tested on: NCI-H23
[48] = tested on: SR
[49] = tested on: SNB-75
[50] = tested on: SW-620
[51] = tested on: SK-OV-3
[52] = tested on: M14
[53] = tested on: UACC-257
[54] = tested on: OVCAR-3
[55] = tested on: SK-MEL-2
[56] = tested on: K562
[57] = tested on: U-251
[58] = tested on: OVCAR-5

## Cc1cccc(Nc2nc(NNC(=O)Cc3ccccc3)nc(NNC(=O)c3ccncc3)n2)c1
[1]
  GI50: > 10 µM (inactive)
[2]
  GI50: > 10 µM (inactive)
[3]
  GI50: > 10 µM (inactive)
[4]
  GI50: > 10 µM (inactive)
[5]
  GI50: > 10 µM
[6]
  GI50: > 10 µM (inactive)
[7]
  GI50: > 10 µM (inactive)
[8]
  GI50: > 10 µM (inactive)
[9]
  GI50: > 10 µM (inactive)
[10]
  GI50: > 10 µM (inactive)
[11]
  GI50: > 10 µM (inactive)
[12]
  GI50: > 10 µM (inactive)
[13]
  GI50: > 10 µM (inactive)
[14]
  GI50: > 10 µM (inactive)
[15]
  GI50: > 10 µM (inactive)
[16]
  GI50: > 10 µM (inactive)
[17]
  GI50: > 10 µM (inactive)
[18]
  GI50: > 10 µM (inactive)
[19]
  GI50: > 10 µM (inactive)
[20]
  GI50: > 10 µM (inactive)
[21]
  GI50: > 10 µM (inactive)
[22]
  GI50: > 10 µM (inactive)
[23]
  GI50: > 10 µM (inactive)
[24]
  GI50: > 10 µM (inactive)
[25]
  GI50: > 10 µM (inactive)
[26]
  GI50: > 10 µM (inactive)
[27]
  GI50: > 10 µM (inactive)
[28]
  GI50: > 10 µM (inactive)
[29]
  GI50: > 10 µM (inactive)
[30]
  GI50: > 10 µM (inactive)
[31]
  GI50: > 10 µM (inactive)
[32]
  GI50: > 10 µM (inactive)
[33]
  GI50: > 10 µM (inactive)
[34]
  GI50: > 10 µM (inactive)
[35]
  GI50: > 10 µM (inactive)
[36]
  GI50: > 10 µM (inactive)
[37]
  GI50: > 10 µM (inactive)
[38]
  GI50: > 10 µM (inactive)
[39]
  GI50: > 10 µM (inactive)
[40]
  GI50: > 10 µM (inactive)
[41]
  GI50: > 10 µM (inactive)
[42]
  GI50: > 10 µM (inactive)
[43]
  GI50: > 10 µM (inactive)
[44]
  GI50: > 10 µM (inactive)
[45]
  GI50: > 10 µM (inactive)
[46]
  GI50: > 10 µM (inactive)
[47]
  GI50: > 10 µM (inactive)
[48]
  GI50: > 10 µM (inactive)
[49]
  GI50: > 10 µM (inactive)
[50]
  GI50: > 10 µM (inactive)
[51]
  GI50: > 10 µM (inactive)
[52]
  GI50: > 10 µM (inactive)
[53]
  GI50: > 10 µM (inactive)

## COc1ccc(C[C@H]2COC(=O)[C@@H]2Cc2cc(OC)c(OC)c(OC)c2)cc1OC
[1]
  GI50: > 64 µM (inactive)
[2]
  GI50: > 100 µM (inactive)
[3]
  GI50: > 100 µM (inactive)
[4]
  GI50: 43.6 µM (inactive)
[5]
  GI50: > 100 µM
[6]
  GI50: > 100 µM (inactive)
[7]
  GI50: 17.1 µM (inactive)
[8]
  GI50: 16 µM (inactive)
[9]
  GI50: > 100 µM (inactive)
[54]
  GI50: > 89.1 µM (inactive)
[10]
  GI50: 32.4 µM (inactive)
[11]
  GI50: > 100 µM (inactive)
[13]
  GI50: 32 µM (inactive)
[14]
  GI50: > 100 µM (inactive)
[15]
  GI50: > 100 µM (inactive)
[16]
  GI50: > 100 µM (inactive)
[17]
  GI50: > 65.8 µM (inactive)
[18]
  GI50: > 100 µM (inactive)
[19]
  GI50: 50.1 µM (inactive)
[20]
  GI50: > 68.7 µM (inactive)
[21]
  GI50: > 100 µM (inactive)
[22]
  GI50: > 100 µM (inactive)
[23]
  GI50: > 94.6 µM (inactive)
[55]
  GI50: > 88.3 µM (inactive)
[24]
  GI50: > 100 µM (inactive)
[56]
  GI50: 77.8 µM (inactive)
[25]
  GI50: 41.1 µM (inactive)
[26]
  GI50: 38 µM (inactive)
[27]
  GI50: > 81.7 µM (inactive)
[28]
  GI50: > 61.7 µM (inactive)
[29]
  GI50: > 87.3 µM (inactive)
[30]
  GI50: 48.2 µM (inactive)
[31]
  GI50: > 81.1 µM (inactive)
[32]
  GI50: > 100 µM (inactive)
[33]
  GI50: > 54.5 µM (inactive)
[34]
  GI50: > 34.4 µM (inactive)
[35]
  GI50: 78.7 µM (inactive)
[36]
  GI50: > 87.9 µM (inactive)
[37]
  GI50: 17.9 µM (inactive)
[38]
  GI50: > 74.1 µM (inactive)
[39]
  GI50: 42 µM (inactive)
[40]
  GI50: > 100 µM (inactive)
[41]
  GI50: > 100 µM (inactive)
[42]
  GI50: 26.2 µM (inactive)
[43]
  GI50: 98.2 µM (inactive)
[44]
  GI50: > 100 µM (inactive)
[45]
  GI50: 72.1 µM (inactive)
[46]
  GI50: > 70.3 µM (inactive)
[47]
  GI50: 99.3 µM (inactive)
[57]
  GI50: > 100 µM (inactive)
[48]
  GI50: 5.9 µM (inactive)
[58]
  GI50: > 100 µM (inactive)
[49]
  GI50: > 67.8 µM (inactive)
[50]
  GI50: > 100 µM (inactive)
[51]
  GI50: > 100 µM (inactive)
[52]
  GI50: 90.4 µM (inactive)
[53]
  GI50: > 75 µM (inactive)

## O=C(O)CN(CCNC(=O)OCC1c2ccccc2-c2ccccc21)CCNC(=O)OCC1c2ccccc2-c2ccccc21
[1]
  GI50: 18 µM (inactive)
[3]
  GI50: 20.8 µM (inactive)
[4]
  GI50: 22.1 µM (inactive)
[5]
  GI50: 27.2 µM
[6]
  GI50: 23.3 µM (inactive)
[7]
  GI50: 25.4 µM (inactive)
[8]
  GI50: 22.1 µM (inactive)
[9]
  GI50: 25 µM (inactive)
[54]
  GI50: 18.1 µM (inactive)
[10]
  GI50: 23.4 µM (inactive)
[11]
  GI50: 25.4 µM (inactive)
[12]
  GI50: 24.6 µM (inactive)
[13]
  GI50: 27.2 µM (inactive)
[14]
  GI50: 19.9 µM (inactive)
[15]
  GI50: 20.6 µM (inactive)
[16]
  GI50: 25 µM (inactive)
[17]
  GI50: 23.7 µM (inactive)
[18]
  GI50: 21.3 µM (inactive)
[19]
  GI50: 20.1 µM (inactive)
[20]
  GI50: 17.2 µM (inactive)
[21]
  GI50: 17.5 µM (inactive)
[22]
  GI50: 29.6 µM (inactive)
[23]
  GI50: 20.6 µM (inactive)
[55]
  GI50: 22.9 µM (inactive)
[24]
  GI50: 22.3 µM (inactive)
[56]
  GI50: 19 µM (inactive)
[25]
  GI50: 45.2 µM (inactive)
[26]
  GI50: 43.9 µM (inactive)
[27]
  GI50: 35.6 µM (inactive)
[28]
  GI50: 27.1 µM (inactive)
[29]
  GI50: 17.4 µM (inactive)
[30]
  GI50: 24.5 µM (inactive)
[31]
  GI50: 19.1 µM (inactive)
[32]
  GI50: 19 µM (inactive)
[33]
  GI50: 36.1 µM (inactive)
[34]
  GI50: 33.3 µM (inactive)
[35]
  GI50: 20 µM (inactive)
[36]
  GI50: 17.7 µM (inactive)
[37]
  GI50: 20.1 µM (inactive)
[38]
  GI50: 18.1 µM (inactive)
[39]
  GI50: 24 µM (inactive)
[40]
  GI50: 29.1 µM (inactive)
[41]
  GI50: 19.2 µM (inactive)
[42]
  GI50: 19.6 µM (inactive)
[43]
  GI50: 25 µM (inactive)
[44]
  GI50: 20.1 µM (inactive)
[45]
  GI50: 23.7 µM (inactive)
[46]
  GI50: 18.6 µM (inactive)
[47]
  GI50: 24.8 µM (inactive)
[57]
  GI50: 20.1 µM (inactive)
[48]
  GI50: 24.9 µM (inactive)
[58]
  GI50: 33.3 µM (inactive)
[49]
  GI50: 29.6 µM (inactive)
[50]
  GI50: 21.2 µM (inactive)
[51]
  GI50: 32.2 µM (inactive)
[52]
  GI50: 28.8 µM (inactive)
[53]
  GI50: 29.2 µM (inactive)

## Cc1cc2nc(N3C(=O)/C(=C/c4ccc(N(C)C)cc4)N=C3c3ccccc3)sc2cc1C
[1]
  GI50: 0.515 µM (active)
[2]
  GI50: 43.9 µM (inactive)
[3]
  GI50: 18 µM (inactive)
[4]
  GI50: 24.2 µM (inactive)
[5]
  GI50: 32.5 µM
[6]
  GI50: 33.2 µM (inactive)
[7]
  GI50: 23.8 µM (inactive)
[8]
  GI50: 15.2 µM (inactive)
[9]
  GI50: 18.7 µM (inactive)
[54]
  GI50: 41.5 µM (inactive)
[10]
  GI50: 1.14 µM (inactive)
[11]
  GI50: 22.2 µM (inactive)
[12]
  GI50: 16.9 µM (inactive)
[13]
  GI50: 44.5 µM (inactive)
[14]
  GI50: 50.4 µM (inactive)
[15]
  GI50: 19.9 µM (inactive)
[16]
  GI50: 33.6 µM (inactive)
[17]
  GI50: 23 µM (inactive)
[18]
  GI50: > 100 µM (inactive)
[19]
  GI50: 32.3 µM (inactive)
[21]
  GI50: 18.5 µM (inactive)
[22]
  GI50: 54.6 µM (inactive)
[23]
  GI50: 16.3 µM (inactive)
[55]
  GI50: 24.1 µM (inactive)
[56]
  GI50: 25.9 µM (inactive)
[25]
  GI50: 28.6 µM (inactive)
[26]
  GI50: 30.3 µM (inactive)
[27]
  GI50: 18.9 µM (inactive)
[28]
  GI50: 29.4 µM (inactive)
[29]
  GI50: 26 µM (inactive)
[30]
  GI50: 11.3 µM (inactive)
[31]
  GI50: 7.46 µM (inactive)
[32]
  GI50: 40 µM (inactive)
[33]
  GI50: 18.5 µM (inactive)
[35]
  GI50: 11.6 µM (inactive)
[36]
  GI50: 17 µM (inactive)
[37]
  GI50: 31.4 µM (inactive)
[38]
  GI50: 30.1 µM (inactive)
[39]
  GI50: 15.9 µM (inactive)
[40]
  GI50: 58.9 µM (inactive)
[41]
  GI50: 23 µM (inactive)
[42]
  GI50: 15.2 µM (inactive)
[43]
  GI50: 51.9 µM (inactive)
[44]
  GI50: 20.5 µM (inactive)
[45]
  GI50: 20.3 µM (inactive)
[46]
  GI50: 26 µM (inactive)
[57]
  GI50: 32.7 µM (inactive)
[48]
  GI50: 6.05 µM (inactive)
[58]
  GI50: 22.9 µM (inactive)
[49]
  GI50: 22.9 µM (inactive)
[50]
  GI50: 24.7 µM (inactive)
[51]
  GI50: > 100 µM (inactive)
[52]
  GI50: 26.7 µM (inactive)
[53]
  GI50: 27.2 µM (inactive)
